Measured values as given in US8846694B2, “Pyrrolidone derivatives for use as MetAP-2 inhibitors” (Merck Patent GmbH, priority 2008, dated 2014).

Biological target: MetAP-2 (Homo sapiens, UniProt P50579)
Test: MetAP-2 activity measurement (coupled enzymatic reactions, substrate Met-Arg-Ser, photometric at 450 nm)
Format: biochemical
Conditions: read-out: IC50 enzyme (Inhibition of MetAP-2)
Procedure, shortened: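 Human MetAP-2 cleaves Met-Arg-Ser; the freed methionine is oxidized by L-amino acid oxidase, and the resulting H2O2 drives peroxidase oxidation of dianisidine, read continuously at 450 nm. Activity is taken as the slope in the visually linear region.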

MetAP-2, sequence (P50579 whole entry, species assumed): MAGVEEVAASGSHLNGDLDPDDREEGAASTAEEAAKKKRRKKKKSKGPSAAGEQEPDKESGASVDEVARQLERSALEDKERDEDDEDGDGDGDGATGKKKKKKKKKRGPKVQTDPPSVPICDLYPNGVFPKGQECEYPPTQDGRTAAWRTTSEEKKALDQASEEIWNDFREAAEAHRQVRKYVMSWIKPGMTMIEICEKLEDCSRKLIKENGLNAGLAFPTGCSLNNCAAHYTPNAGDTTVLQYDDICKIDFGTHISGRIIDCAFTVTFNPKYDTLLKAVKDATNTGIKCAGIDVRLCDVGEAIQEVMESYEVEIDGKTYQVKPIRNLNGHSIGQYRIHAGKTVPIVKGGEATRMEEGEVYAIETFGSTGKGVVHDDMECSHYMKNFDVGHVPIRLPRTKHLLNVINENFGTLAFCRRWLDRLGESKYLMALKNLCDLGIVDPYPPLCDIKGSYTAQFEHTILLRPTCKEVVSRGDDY

Row | SMILES | IC50 [µM]
1 | CC(C)(C)OC(=O)NCC(=O)N1CCN(c2ccc3cccc(OC[C@H]4CCCN4c4ncnc5[nH]cnc45)c3c2)CC1 [A167, tert-Butyl [2-oxo-2-(4-{8-[(R)-1-(9H-purin-6-yl)-pyrrolidin-2-ylmethoxy]naphthalen-2-yl}-piperazin-1-yl)ethyl]carbamate] | 1 to 10
2 | NCC(=O)N1CCN(c2ccc3cccc(OC[C@H]4CCCN4c4ncnc5[nH]cnc45)c3c2)CC1 [A168, 2-Amino-1-(4-{8-[(R)-1-(9H-purin-6-yl)pyrrolidin-2-ylmethoxy]naphthalen-2-yl}piperazin-1-yl)-ethanone] | 1 to 10
3 | OC1CCN(C2CCc3cccc(OC[C@H]4CCCN4c4ncnc5[nH]cnc45)c3C2)C1 (stereo partly drawn) [A169, 1-{8-[(R)-1-(9H-Purin-6-yl)pyrrolidin-2-yl-methoxy]-1,2,3,4-tetrahydronaphthalen-2-yl}pyrrolidin-3-ol] | 1 to 10
4 | OC1CN(C2CCc3cccc(OC[C@H]4CCCN4c4ncnc5[nH]cnc45)c3C2)C1 (stereo partly drawn) [A170, 1-{8-[(R)-1-(9H-Purin-6-yl)pyrrolidin-2-yl-methoxy]-1,2,3,4-tetrahydronaphthalen-2-yl}azetidin-3-ol] | 0.01 to 1
5 | CC(=O)NC1CCN(C2CCc3cccc(OC[C@H]4CCCN4c4ncnc5[nH]cnc45)c3C2)C1 (stereo partly drawn) [A171, N-(1-{8-[(R)-1-(9H-Purin-6-yl)pyrrolidin-2-yl-methoxy]-1,2,3,4-tetrahydronaphthalen-2-yl}pyrrolidin-3-yl)acetamide] | 1 to 10
6 | c1ccc2c(NCCN3CCOCC3)ncc(OC[C@H]3CCCN3c3ncnc4[nH]cnc34)c2c1 [A172, (2-Morpholin-4-ylethyl)-{4-[(R)-1-(9H-purin-6-yl)-pyrrolidin-2-ylmethoxy]isoquinolin-1-yl}amine] | 1 to 10
7 | CN(C)C(=O)CC1CCc2c(OC[C@H]3CCCN3c3ncnc4[nH]cnc34)cccc2C1=O (stereo partly drawn) [A173, N,N-Dimethyl-2-{1-oxo-5-[(R)-1-(9H-purin-6-yl)-pyrrolidin-2-ylmethoxy]-1,2,3,4-tetrahydro-naphthalen-2-yl}acetamide] | 0.01 to 1
8 | CN(C)C(=O)C[C@@H]1CCc2c(OC[C@H]3CCCN3c3ncnc4[nH]cnc34)cccc2C1=O [A174, N,N-Dimethyl-2-{(S)-1-oxo-5-[(R)-1-(9H-purin-6-yl)pyrrolidin-2-ylmethoxy]-1,2,3,4-tetrahydro-naphthalen-2-yl}acetamide] | 0.01 to 1
9 | CN(C)C(=O)C[C@H]1CCc2c(OC[C@H]3CCCN3c3ncnc4[nH]cnc34)cccc2C1=O [A175, N,N-Dimethyl-2-{(R)-1-oxo-5-[(R)-1-(9H-purin-6-yl)pyrrolidin-2-ylmethoxy]-1,2,3,4-tetrahydro-naphthalen-2-yl}acetamide] | 0.01 to 1
10 | CCNC(=O)CC1CCc2c(OC[C@H]3CCCN3c3ncnc4[nH]cnc34)cccc2C1=O (stereo partly drawn) [A176, N-Ethyl-2-{1-oxo-5-[(R)-1-(9H-purin-6-yl)-pyrrolidin-2-ylmethoxy]-1,2,3,4-tetrahydro-naphthalen-2-yl}acetamide] | 0.01 to 1
11 | NC(=O)C[C@@H](N)C(=O)Nc1ccc2cccc(OC[C@H]3CCCN3c3ncnc4[nH]cnc34)c2c1 [A177, (R)-2-Amino-N1-{8-[(R)-1-(9H-purin-6-yl)-pyrrolidin-2-ylmethoxy]naphthalen-2-yl}succinamide] | 1 to 10
12 | c1ccc2c(NCCCN3CCOCC3)ncc(OC[C@H]3CCCN3c3ncnc4[nH]cnc34)c2c1 [A178, (3-Morpholin-4-ylpropyl)-{4-[(R)-1-(9H-purin-6-yl)pyrrolidin-2-ylmethoxy]isoquinolin-1-yl}amine] | 1 to 10
13 | CNC(=O)CC1CCc2c(OC[C@H]3CCCN3c3ncnc4[nH]cnc34)cccc2C1=O (stereo partly drawn) [A179, N-Methyl-2-{1-oxo-5-[(R)-1-(9H-purin-6-yl)-pyrrolidin-2-ylmethoxy]-1,2,3,4-tetrahydro-naphthalen-2-yl}acetamide] | 0.01 to 1
14 | O=C(CC1CCc2c(OC[C@H]3CCCN3c3ncnc4[nH]cnc34)cccc2C1=O)NCCO (stereo partly drawn) [A180, N-(2-Hydroxyethyl)-2-{1-oxo-5-[(R)-1-(9H-purin-6-yl)pyrrolidin-2-ylmethoxy]-1,2,3,4-tetrahydro-naphthalen-2-yl}acetamide] | 0.01 to 1
15 | CN(C)CCNc1ncc(OC[C@H]2CCCN2c2ncnc3[nH]cnc23)c2ccccc12 [A181, N,N-Dimethyl-N′-{4-[(R)-1-(9H-purin-6-yl)-pyrrolidin-2-ylmethoxy]isoquinolin-1-yl}ethane-1,2-diamine] | 0.01 to 1
16 | CN(C)CCCNc1ncc(OC[C@H]2CCCN2c2ncnc3[nH]cnc23)c2ccccc12 [A182] | 0.01 to 1
17 | O=C(O)CC[C@H](NC(=O)O)C(=O)Nc1ccc2cccc(OC[C@H]3CCCN3c3ncnc4[nH]cnc34)c2c1 [A183, (S)-4-Carboxyamino-4-{8-[(R)-1-(9H-purin-6-yl)-pyrrolidin-2-ylmethoxy]naphthalen-2-yl-carbamoyl}butyric acid] | > 10
18 | CCOC(=O)c1c(OC[C@H]2CCCN2c2ncnc3[nH]cnc23)c2cc(F)ccc2n1C [A184, Ethyl 5-fIuoro-1-methyl-3-[(R)-1-(9H-purin-6-yl)-pyrrolidin-2-ylmethoxy]-1H-indole-2-carboxylate] | > 10
19 | CCOC(=O)Cn1c(C(=O)OCC)c(OC[C@H]2CCCN2c2ncnc3[nH]cnc23)c2cc(F)ccc21 [A185, Ethyl 1-ethoxycarbonylmethyl-5-fluoro-3-[(R)-1-(9H-purin-6-yl)pyrrolidin-2-ylmethoxy]-1H-indole-2-carboxylate] | > 10
20 | O=C1OCCC1CCOc1ccc2cccc(OC[C@H]3CCCN3c3ncnc4[nH]cnc34)c2c1 (stereo partly drawn) [A186, 3-(2-{8-[(R)-1-(9H-Purin-6-yl)pyrrolidin-2-yl-methoxy]naphthalen-2-yloxy}ethyl)dihydrofuran-2-one] | 1 to 10

More lines, now with the values ahead:

Row | IC50 [µM] | SMILES
21 | 1 to 10 | CC(C)(C)OC(=O)N[C@@H](CCC(N)=O)C(=O)N1CCc2cccc(OC[C@H]3CCCN3c3ncnc4[nH]cnc34)c2C1 [A187, tert-Butyl ((S)-3-carbamoyl-1-{8-[(R)-1-(9H-purin-6-yl)pyrrolidin-2-ylmethoxy]-3,4-dihydro-1H-isoquinoline-2-carbonyl}propyl)carbamate]
22 | 1 to 10 | CC(C)(C)OC(=O)N[C@H](CC(N)=O)C(=O)N1CCc2cccc(OC[C@H]3CCCN3c3ncnc4[nH]cnc34)c2C1 [A188, tert-Butyl ((R)-1-carbamoylmethyl-2-oxo-2-{8-[(R)-1-(9H-purin-6-yl)pyrrolidin-2-ylmethoxy]-3,4-dihydro-1H-isoquinolin-2-yl}ethyl)carbamate]
23 | 1 to 10 | CC(C)(C)OC(=O)N[C@@H](Cc1c[nH]cn1)C(=O)N1CCc2cccc(OC[C@H]3CCCN3c3ncnc4[nH]cnc34)c2C1 [A189, tert-Butyl ((S)-1-(1H-imidazol-4-ylmethyl)-2-oxo-2-{8-[(R)-1-(9H-purin-6-yl)pyrrolidin-2-yl-methoxy]-3,4-dihydro-1H-isoquinolin-2-yl}ethyl)-carbamate]
24 | > 10 | Cn1c(C(=O)O)c(OC[C@H]2CCCN2c2ncnc3[nH]cnc23)c2cc(F)ccc21 [A190, 5-Fluoro-1-methyl-3-[(R)-1-(9H-purin-6-yl)-pyrrolidin-2-ylmethoxy]-1H-indole-2-carboxylic acid]
25 | 0.01 to 1 | c1ccc2c(OC[C@H]3CCCN3c3ncnc4[nH]cnc34)cc(CNCCN3CCOCC3)nc2c1 [A191, (2-Morpholin-4-ylethyl)-{4-[(R)-1-(9H-purin-6-yl)pyrrolidin-2-ylmethoxy]quinolin-2-yl-methyl}amine]
26 | 0.01 to 1 | O=C1CC[C@@H](C(=O)N2CCc3cccc(OC[C@H]4CCCN4c4ncnc5[nH]cnc45)c3C2)N1 [A192, (S)-5-{8-[(R)-1-(9H-Purin-6-yl)pyrrolidin-2-yl-methoxy]-3,4-dihydro-1H-isoquinoline-2-carbonyl}pyrrolidin-2-one]
27 | > 10 | CC(C)(C)OC(=O)NCCCC[C@H](NC(=O)OCc1ccccc1)C(=O)N1CCc2cccc(OC[C@H]3CCCN3c3ncnc4[nH]cnc34)c2C1 [A193, tert-Butyl ((S)-5-benzyloxycarbonylamino-6-oxo-6-{8-[(R)-1-(9H-purin-6-yl)pyrrolidin-2-yl-methoxy]-3,4-dihydro-1H-isoquinolin-2-yl}hexyl)-carbamate]
28 | 0.01 to 1 | NC(=O)C[C@@H](N)C(=O)N1CCc2cccc(OC[C@H]3CCCN3c3ncnc4[nH]cnc34)c2C1 [A194, (R)-3-Amino-4-oxo-4-{8-[(R)-1-(9H-purin-6-yl)-pyrrolidin-2-ylmethoxy]-3,4-dihydro-1H-isoquinolin-2-yl}butyramide]
29 | 0.01 to 1 | N[C@@H](Cc1c[nH]cn1)C(=O)N1CCc2cccc(OC[C@H]3CCCN3c3ncnc4[nH]cnc34)c2C1 [A195, (S)-2-Amino-3-(1H-imidazol-4-yl)-1-{8-[(R)-1-(9H-purin-6-yl)pyrrolidin-2-ylmethoxy]-3,4-dihydro-1H-isoquinolin-2-yl}propan-1-one]
30 | > 10 | O=C(O)CCCCOc1ccc2cccc(OC[C@H]3CCCN3c3ncnc4[nH]cnc34)c2c1 [A196, 5-{8-[(R)-1-(9H-Purin-6-yl)pyrrolidin-2-yl-methoxy]naphthalen-2-yloxy}pentanoic acid]
31 | > 10 | Cn1c(C(=O)NCc2ccc(F)cc2)c(OC[C@H]2CCCN2c2ncnc3[nH]cnc23)c2cc(F)ccc21 [A197, N-(4-Fluorobenzyl)-5-fluoro-1-methyl-3-[(R)-1-(9H-purin-6-yl)pyrrolidin-2-ylmethoxy]-1H-indole-2-carboxamide]
32 | > 10 | Cn1c(C(=O)OCCc2ccc(F)cc2)c(OC[C@H]2CCCN2c2ncnc3[nH]cnc23)c2cc(F)ccc21 [A198, 2-(4-Fluorophenyl)ethyl 5-fluoro-1-methyl-3-[(R)-1-(9H-purin-6-yl)pyrrolidin-2-ylmethoxy]-1H-indole-2-carboxylate]
33 | 1 to 10 | NCCCC[C@H](NC(=O)OCc1ccccc1)C(=O)N1CCc2cccc(OC[C@H]3CCCN3c3ncnc4[nH]cnc34)c2C1 [A199, Benzyl ((S)-5-amino-1-{8-[(R)-1-(9H-purin-6-yl)-pyrrolidin-2-ylmethoxy]-3,4-dihydro-1H-isoquinolin-2-carbonyl}pentyl)carbamate]
